The values that follow come from US20220296573A1, “NOVEL COMPOUNDS AND PHARMACEUTICAL COMPOSITIONS THEREOF FOR THE TREATMENT OF INFLAMMATORY DISORDERS” (Galapagos NV, priority 2019, published 2022).

One data set deals with T1, human IRAK-4 (Homo sapiens, UniProt Q9NWZ3).
T1 construct: purchased Carna Biosciences 09 145
T1 sequence (Q9NWZ3 1-460): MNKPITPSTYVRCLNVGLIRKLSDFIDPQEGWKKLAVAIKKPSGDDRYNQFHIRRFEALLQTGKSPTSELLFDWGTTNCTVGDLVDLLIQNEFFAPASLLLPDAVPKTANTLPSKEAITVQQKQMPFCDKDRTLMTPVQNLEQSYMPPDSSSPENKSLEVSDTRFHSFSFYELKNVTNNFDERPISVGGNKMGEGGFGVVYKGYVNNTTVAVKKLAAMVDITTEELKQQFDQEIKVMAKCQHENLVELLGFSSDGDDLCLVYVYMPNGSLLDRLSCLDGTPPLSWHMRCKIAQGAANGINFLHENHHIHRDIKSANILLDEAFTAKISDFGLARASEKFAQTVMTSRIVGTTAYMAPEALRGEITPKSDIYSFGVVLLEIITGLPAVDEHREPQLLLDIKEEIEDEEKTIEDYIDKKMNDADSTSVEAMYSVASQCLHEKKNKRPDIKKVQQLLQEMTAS
Description: Phosphorylation IC50 determination for human IRAK-4 (ADP-Glo Kinase Assay). The settings on record: human IRAK-4, substrate RIP140, Km ATP; read-out: IRAK4 ADPglo biochemical assay IC50. The procedure:
The phosphorylation of the substrate RIP140 (SEQ ID1) by IRAK4 at Km ATP was detected with the ADP-Glo Kinase Assay (Promega, Cat #V9103), a luminescent kinase assay which measures the ADP formed from a kinase reaction. (Zegzouti et al. 2009) In a second step the kinase reaction was terminated and all the remaining ATP was depleted. In a final step the ADP was converted into ATP and this newly synthesized ATP was measured by using a luciferase/luciferin reaction with a luminescent reader. The luminescent signal positively correlated with kinase activity, in particular kinase inhibition giving a decrease of the luminescent signal.
For the semi-automated assay, the positive control (100% inhibition) was prepared by diluting 10 mM staurosporine stock mixture (20 μL) in water (3.8 mL) and DMSO (180 μL), thus resulting in a […] staurosporine solution at 1% DMSO (final concentration after further dilution in the kinase reaction).
For the automated assay, no pre-dilution of the 10 mM staurosporine stock was made. 10 mM staurosporine was spotted directly in the assay plate using acoustic dispensing and complemented with DMSO to result in a similar final concentration as mentioned above.
For the semi-automated assay, the negative control (0% inhibition) was prepared by mixing water (3.8 mL) and DMSO (200 μL) resulting in a final concentration of 1% DMSO after further dilution in the kinase reaction. For the automated assay no pre-dilution of DMSO was done. 100% DMSO was spotted directly on the assay plate.
The assay buffer solution was prepared at a concentration corresponding to 5 fold the final (most diluted) assay concentration by mixing a solution of 125 mM TRIS pH 7.5+0.05% Triton X-100+2.5 mM EGTA (5.27 mL) with 1M mgCl2 (72 μL), 1M DTT (57.6 μL), and 200 mM MnCl2 (360 μL).
For example, for the semi-automated method, the enzyme-substrate mixture was prepared by mixing water (3999 μL), assay buffer solution (1380 μL), 1 mM RIP140 (138 μL—SEQ ID1), and 200 ng/mL IRAK 4 (3.45 μL Carna Biosciences, 09 145).
For semi-automated method, the ATP mixture was prepared at a concentration corresponding to 2.5 fold the final (most diluted) assay concentration of the semi-automated method and 1.5 fold the final (most diluted) assay concentration of the automated method. For example, for the semi-automated method, the ATP mixture was prepared by mixing water (4126 μL), assay buffer solution (1380 μL), and 10 mM ATP (13.80 μL).
The assay are performed either in a semi-automated or fully automated manner. The assay volume and the incubation time of the ADP detection were different accordingly the method used.
The compounds were prepared as a serial dilution of 10 point dose responses with 1/5 dilution steps in 100% DMSO starting from 2 mM highest concentration, diluted 1/20 in water. 1 μL was transferred dry to the assay plates.
On each assay plate 32 wells of each control (positive & negative) were added, followed by 2 μL enzyme-substrate mixture.
The reaction was started by adding 2 μL diluted ATP (final concentration Km ATP) on the assay plates. Plates were centrifuged for a few seconds at 1000 rpm followed by an incubation at r.t. for 120 min.
The reactions were stopped and the unconsumed ATP was depleted by adding 5 μL ADP-glo Reagent (Promega, Cat #V9103) to the reaction. The plates were quickly centrifuged at 1000 rpm and incubated at r.t. for 40 min corresponding to full ATP depletion.
The ADP was converted back to ATP and luciferase and luciferin were introduced to detect ATP by adding 10 μL kinase detection reagent (Promega, Cat #V9103) to the reaction. The plates were centrifuged for a few seconds at 1000 rpm and incubated at r.t. for a further 30 min.
Luminescent read out was performed on an Envision luminescent reader (Perkin Elmer).
For the automated assay, the compounds were prepared as a serial dilution of 10 point dose responses with 1/5 dilution steps in 100% DMSO starting from 2 mM highest concentration. […]
(ADP-Glo turns the ADP formed in a reaction into a luminescent signal.)

The next data set relates to Mouse Hepatocyte. Description: Metabolic stability in mouse hepatocytes. The settings on record: mouse cryopreserved hepatocytes, 1 μM. The class given is in vitro ADME. As to the method: (§1) The aim of this assay is to determine the metabolic stability of the compound in hepatocytes (cryopreserved) of different species. Low hepatocyte stability may result in the formation of unwanted metabolites, high clearance, and therefore is not desirable.
(§2) A 10 mM stock solution of test compound in DMSO was first diluted in DMSO to 3 mM, and then in modified Krebs-Henseleit buffer (Sigma, K3753) to 5 μM. This compound dilution was added to a suspension of pooled cryopreserved hepatocytes (BioreclamationIVT) at 37° C. under gentle shaking.
(§3) Final reaction conditions were: 1 μM of test compound, 0.03% DMSO, 0.5 million viable hepatocytes/mL, and 75 μL incubation volume.
(§4) Testosterone (1 μM) and 7-hydroxycoumarin (1 μM) were used, respectively as phase I and phase II metabolic reaction controls.
(§5) After 0, 10, 20, 45, 90, 120 and 180 min of incubation, the reaction was terminated with 225 μL of MeCN:MeOH (2:1) containing 100 ng/mL of diclofenac as analytical internal standard. Samples were mixed, centrifuged and the supernatant analyzed by LC-MS/MS.
(§6) The instrument responses (ratios of test compound and internal standard peak areas) were referenced to the zero time point samples (considered as 100%) in order to determine the percentage of compound remaining.
(§7) Plots of percentage compound remaining were used to determine the intrinsic clearance in the hepatocyte incubations using the following equations:
(§8) Scaled Clint [L/h/kg]=Clint [μL/min/10^6 cells]*#(10) cells/g liver*60*(1/10^6) Scaled Clint unbound [L/h/kg]=Clint [L/h/kg]/Fu,inc where: fu,inc equals hepatocyte binding, derived from microsomal binding (fu,mic) by following equation: […]

The next data set concerns Human Hepatocyte. Description: Metabolic stability in human hepatocytes. It is filed as in vitro ADME. As to conditions: human cryopreserved hepatocytes, 1 μM. The procedure:
as §1, §2, §3, §4, §5, §6, §7, §8

The next data set can be described thus: Thermodynamic solubility. The class given is physicochemical. As to conditions: Fasted State Simulated Intestine Fluid (FaSSIF), 37 °C, fassif, thermodynamic from solid, Fasted State Simulated Intestine Fluid, read-out: Tsol FaSSIF. As to the method: In a 8 mL glass vial, 1-2 mg of dry matter of compound were added and stirred with the suitable buffers (Fed State Simulated Intestine Fluid, FeSSIF, or Fasted State Simulated Intestine Fluid, FaSSIF, or Fasted State Simulated Gastric Fluid, FaSSGF, or phosphate buffer pH 7.4) for 24 h at r.t. (for the buffer pH 7.4) or 37° C. (for the GI fluids). The concentration of the mixture was 1 mg/mL.
A volume of 1000 μL were sampled, centrifuged for 10 min at 10 000 rpm and 500 μL of the supernatant were filtered on captiva plate. The samples are diluted in duplicates in DMSO (F100 and F10). Then, a final dilution (F100) in 80/20 H2O/MeCN containing the internal standard (warfarin) was used for LCMS-MS analysis.
A standard curve was made starting from a 40,000 ng/mL stock in DMSO, freshly prepared from dry matter. Then, successive concentrations at 15,000, 11,000, 6,000, 2,500, 1,000, 375, 150 and 75 ng/mL in DMSO were prepared.
Three quality control samples were made: one of 10,000, 1,500 and 200 ng/mL in DMSO, also starting from the DMSO working stock solution at 40,000 ng/mL.
The standard curve and quality controls were diluted a F100 in 80/20 H2O/MeCN (with internal standard) and analyzed on LC/MS-MS (API4000 or API5500).
The samples were analyzed on LC-MS with a flow rate of 0.6 mL/min. The mobile phase A was 0.1% formic acid in water and the mobile phase B was 0.1% formic acid in 90% MeCN and 10% of water. The sample was run under positive or negative ion spray on Pursuit C18—5 μm (2.0×20 mm) column, from Agilent.
The ratio analyte/internal standard peaks areas of the standard curve were plotted in a graph and a linear or polynomial of the second order equation was used to calculate the unknown concentrations of the test compound.
Solubility values were reported in μM and g/mL.

Converted amounts (≈) assume the structure as drawn.

Broadly, the IC50 is the concentration at which inhibition is half-maximal. Regarding `O=C(Nc1cn2cc(C3CCOCC3)nc2cc1C(=O)NCC(F)(F)F)c1cccc(C(F)(F)F)n1` [Compound 21, 2-(tetrahydro-2H-pyran-4-yl)-N-(2,2,2-trifluoroethyl)-6-(6-(trifluoromethyl)picolinamido)imidazo[1,2-a]pyridine-7-carboxamide], on human IRAK-4, the IC50 lay in the range of 10 to 50 nM.
In the case of `O=C(Nc1cn2cc(C3CCOCC3)nc2cc1C(=O)NC1COC1)c1cccc(C(F)(F)F)n1` [Compound 22, N-(oxetan-3-yl)-2-(tetrahydro-2H-pyran-4-yl)-6-(6-(trifluoromethyl)picolinamido)imidazo[1,2-a]pyridine-7-carboxamide], the IC50 on human IRAK-4 is 10 to 50 nM.
For `O=C(Nc1cn2cc(C3CCOCC3)nc2c(F)c1OCC(F)F)c1cccn(C2CC2)c1=O` [Compound 19, 1-cyclopropyl-N-(7-(2,2-difluoroethoxy)-8-fluoro-2-(tetrahydro-2H-pyran-4-yl)imidazo[1,2-a]pyridin-6-yl)-2-oxo-1,2-dihydropyridine-3-carboxamide], the IC50 on human IRAK-4 was 10 to 50 nM. The “Mouse Hepatocyte stability (Perc. remaining at 90 min)” value in the data set with Mouse Hepatocyte worked out at 76.5 Perc. In the data set with Human Hepatocyte, the “Human Hepatocyte stability (Perc. remaining at 90 min)” value is 56.6 Perc.
On to `O=C(Nc1cn2cc(C3CCOCC3)nc2cc1C(=O)NCC(F)F)c1cccc(C(F)(F)F)n1` [Compound 17, N-(2,2-difluoroethyl)-2-(tetrahydro-2H-pyran-4-yl)-6-(6-(trifluoromethyl)picolinamido)imidazo[1,2-a]pyridine-7-carboxamide], for which the IC50 at human IRAK-4 fell in the range of 5 to 10 nM.
As to `O=C(Nc1cn2cc(C3CCOCC3)nc2cc1C(=O)NC1CC1)c1cccc(C(F)(F)F)n1` [Compound 15, N-cyclopropyl-2-(tetrahydro-2H-pyran-4-yl)-6-(6-(trifluoromethyl)picolinamido)imidazo[1,2-a]pyridine-7-carboxamide], the concentration for half-maximal inhibition (IC50) at human IRAK-4 lay within 10 to 50 nM.
For the compound `CCOc1c(NC(=O)c2cccn(C3CC3)c2=O)cn2cc(C3CCOCC3)nc2c1F` [Compound 12, 1-cyclopropyl-N-(7-ethoxy-8-fluoro-2-(tetrahydro-2H-pyran-4-yl)imidazo[1,2-a]pyridin-6-yl)-2-oxo-1,2-dihydropyridine-3-carboxamide], on human IRAK-4, the half-maximal inhibitory concentration (IC50) is 5 to 10 nM. Moreover, the “Mouse Hepatocyte stability (Perc. remaining at 90 min)” value with Mouse Hepatocyte is reported as 75.1 Perc. For the same compound, the “Human Hepatocyte stability (Perc. remaining at 90 min)” value with Human Hepatocyte is given as 85.35 Perc.
As to `COc1cc2nc(C3COCCO3)cn2cc1NC(=O)c1cccn(C)c1=O` (stereo not shown) [Compound 10, N-(2-(1,4-dioxan-2-yl)-7-methoxyimidazo[1,2-a]pyridin-6-yl)-1-methyl-2-oxo-1,2-dihydropyridine-3-carboxamide], the IC50 at human IRAK-4 was 10 to 50 nM. For the same compound, the solubility thermodynamic at 24 h in the data set “Thermodynamic solubility” was 86.2 µg/mL (≈ 224 µM). Besides, the “Human Hepatocyte stability (Perc. remaining at 90 min)” value with Human Hepatocyte is listed as 99.95 Perc.
For the compound `COc1cc2nc(C3CCS(=O)(=O)CC3)cn2cc1NC(=O)c1cccn(C)c1=O` [Compound 24, N-(2-(1,1-dioxidotetrahydro-2H-thiopyran-4-yl)-7-methoxyimidazo[1,2-a]pyridin-6-yl)-1-methyl-2-oxo-1,2-dihydropyridine-3-carboxamide], the half-inhibitory concentration (IC50) on human IRAK-4 is 10 to 50 nM.
With `CC(C)(C)NC(=O)c1cc2nc(C3CCOCC3)cn2cc1NC(=O)c1cccc(C(F)(F)F)n1` [Compound 18, N-(tert-butyl)-2-(tetrahydro-2H-pyran-4-yl)-6-(6-(trifluoromethyl)picolinamido)imidazo[1,2-a]pyridine-7-carboxamide], on human IRAK-4, the IC50 fell in the range of 10 to 50 nM.
As for `CCNC(=O)c1cc2nc(C3CCOCC3)cn2cc1NC(=O)c1cccc(C(F)(F)F)n1` [Compound 16, N-ethyl-2-(tetrahydro-2H-pyran-4-yl)-6-(6-(trifluoromethyl)picolinamido)imidazo[1,2-a]pyridine-7-carboxamide], at human IRAK-4, the IC50 lay within 10 to 50 nM.
